{"source": "patent US9476087B2", "about": "“Methods and compounds for detecting beta-lactamase activity” (Nanyang Technological University, priority 2008, dated 2016)", "key": {"wild type E. coli Bl21": {"tested_on": "wild type E. coli Bl21", "assay": "Nitrocefin colorimetric assay in living bacteria", "format": "cell-based", "details": "nitrocefin 8 μM", "protocol": "(§1) FIG. 22 depicts a colorimetric measurement after mixing nitrocefin with different bacterial suspensions. 1: Nitrocefin solution (8 μM) only; 2: Nitrocefin (8 μM) mixed with wild type E. coli Bl21; 3: Nitrocefin (8 μM) mixed with β-lactam antibiotics resistant E. coli Bl21; 4: Nitrocefin (8 μM) mixed with clinical isolate K. pneumoniae (ATCC 700603) strains. […] There was no color difference between the Bla-encoded E. coli Bl21 and the K. pneumoniae strains.\n(§2) Bacterial cells (˜10^8 cfu/mL) were suspended in 1 ml of PBS buffer (pH 7.4) which contained substrates under the room temperature. Nitrocefin solution (from Merck) was incubated with bacteria for further enzyme interactions. The final concentration was maintained at 8 μM, which was the same as the gold nanoparticles based enzymatic assay. After 20 mins interaction and followed by centrifugation, supernatant was applied for colorimetric image. The color change with different bacterial suspensions is depicted in FIG. 22."}, "[1]": {"tested_on": "β-lactam antibiotics resistant E. coli Bl21", "assay": "Nitrocefin colorimetric assay in living bacteria", "format": "cell-based", "details": "nitrocefin 8 μM", "protocol": "as §1, §2"}, "[2]": {"tested_on": "clinical isolate K. pneumoniae (ATCC 700603)", "assay": "Nitrocefin colorimetric assay in living bacteria", "format": "cell-based", "details": "nitrocefin 8 μM", "protocol": "as §1, §2"}, "[3]": {"tested_on": "β-lactamase producing microorganisms", "details": "Hakimelahi et al. 2005; cited from earlier work"}, "[4]": {"tested_on": "CC(=O)NC1C(=O)N2C(C(=O)O)=C(CSc3ccc(CC(=O)NCCOCCOCCN)cc3)CSC12", "assay": "purified protein, by the assay type", "details": "other: 25° C., PBS pH 7.4, β-lactamase 5.0 nM, absorbance change at 650 nm", "description": "The kinetic measurements were carried out at 25° C. in PBS (phosphate buffered saline) buffer at pH 7.4. The absorbance change at 650 nm was measured by means of a UV spectrophotometer.\nThe rate of enhancement in absorbance at 650 nm was applied to determine the kinetic properties of enzyme hydrolysis. The values of the kinetic parameters (Km and Kcat) were determined from the double-reciprocal plot of the hydrolysis rate versus substrate concentrations (Lineweaver-Burk plot, based on the Michaelis-Menten model).\nThe kinetic experiments were carried out at 25° C. in PBS buffer with pH 7.4. The absorbance change at 650 nm was measured using a UV spectrophotometer. […] The rate of enhancement in absorbance at 650 nm was applied to determine the kinetic properties of enzyme hydrolysis. The 9 values of the kinetic parameters (Km and Kcat) were determined from the double-reciprocal plot of the hydrolysis rate versus substrate concentrations (Lineweaver-Burk plot)."}}}
{"compound": "O=C(Cc1cccs1)N[C@@H]1C(=O)N2C(C(=O)O)=C(/C=C/c3ccc([N+](=O)[O-])cc3[N+](=O)[O-])CS[C@H]12", "note": "[nitrocefin]", "values": [{"measurement": "color of nitrocefin solution", "setting": "wild type E. coli Bl21", "value": "pink color was also detected"}, {"measurement": "color change of nitrocefin solution", "setting": "[1]", "value": "color change from yellow to pink"}, {"measurement": "color change of nitrocefin solution", "setting": "[2]", "value": "color change from yellow to pink"}]}
{"compound": "COC(=O)C1=C(C(=O)OC(Cl)(Cl)C(Cl)(Cl)OC(=O)C2=C(c3ccccc3)C[C@@H]3[C@@H](NC(=O)Cc4ccccc4)C(=O)N23)N2C(=O)[C@@H](NC(=O)Cc3ccccc3)[C@H]2C1", "note": "(relative stereo) [(5R,6S)-rel-7-oxo-6-[(phenylacetyl)amino]-1-azabicyclo[3.2.0]hept-2-ene-2,3-dicarboxylic acid 3-methyl 2-[1,1,2,2-tetrachloro-2-[[[(5R,6R)-7-oxo-3-phenyl-6-[(phenylacetyl)amino]-1-azabicyclo[3.2.0]hept-2-en-2-yl]carbonyl]oxy]ethyl]ester]", "values": [{"measurement": "activity against β-lactamase producing microorganisms", "setting": "[3]", "value": "excellent activity"}]}
{"compound": "β-lactamase (Escherichia coli)", "values": [{"measurement": "Km", "setting": "[4]", "value": 14.1, "unit": "µM"}, {"measurement": "kcat", "setting": "[4]", "value": 22.7, "unit": "s⁻¹"}]}
